Experimental data taken from ChEMBL document CHEMBL3627696, “Pontemazines A and B, phenazine derivatives containing a methylamine linkage from Streptomyces sp. UT1123 and their protective effect to HT-22 neuronal cells” (2015).
The source made the active and inactive calls. No cut-off for these calls is given here.

Tests used:
HT-22 [1] = assay: Neuroprotective activity against monosodium glutamate-induced cell death in mouse HT22 cells assessed as cell viability at 10 uM preincubated for 2 hrs followed by monosodium glutamate addition measured after 24 hrs by MTT assay (reference value: 50%); assay type: functional; settings: read-out: Activity
HT-22 [2] = assay: Neuroprotective activity against monosodium glutamate-induced cell death in mouse HT22 cells at 5 uM preincubated for 2 hrs followed by monosodium glutamate addition measured after 24 hrs by phase contrast microscopic analysis; assay type: functional, cell-based
HT-22 [3] = assay: Neuroprotective activity against monosodium glutamate-induced cell death in mouse HT22 cells assessed as cell viability at 25 to 50 uM preincubated for 2 hrs followed by monosodium glutamate addition measured after 24 hrs by MTT assay (reference value: 50%); assay type: functional
HT-22 [4] = assay: Neuroprotective activity against monosodium glutamate-induced cell death in mouse HT22 cells at 10 uM preincubated for 2 hrs followed by monosodium glutamate addition measured after 24 hrs by phase contrast microscopic analysis; assay type: functional, cell-based

| Structure (SMILES) | viability at 10 µM (HT-22 [1]) [%] | Activity (HT-22 [2]) | Activity (HT-22 [3]) [%] | Activity (HT-22 [4]) |
| --- | --- | --- | --- | --- |
| COc1ccc(CNc2ccccc2C(N)=O)c2nc3cccc(C(=O)O)c3nc12 | 90 | inactive | >90 | Active |
| COc1ccc(CNc2ccccc2C(N)=O)c2nc3cccc(C(N)=O)c3nc12 | 90 | inactive | – | Active |
